How the values were obtained:
[1] = Comparison with conventional treatments against H2S dissolved in water (Table 2); conditions: 1,000 ppm H2S in water; for Lead acetate paper test, Head space / Lead acetate paper test, Liquid: paper colour
Description: (§1) An overall comparison of the features of the present aromatic imine compounds and conventional compositions is shown in Table 3.

[2] = Solubility in water, oil, fuel and solvents; assay type: physicochemical
[3] = Comparison of features, safety and hazard (Table 3)
Description: as §1

[4] = Comparison of features, performance and handling (Table 3)
Description: as §1

OCCN1CN(CCO)CN(CCO)C1 [Triazine]
Residual H2S, I2 Titration [1]: 660 ppm | Residual H2S, Outside Lab [1]: 728 ppm | Lead acetate paper test, Head space [1]: yellow/ | Lead acetate paper test, Liquid [1]: brown

O=CC=O [Glyoxal]
Oil Solubility [2]: no | Residual H2S, I2 Titration [1]: 350 ppm | Residual H2S, Outside Lab [1]: 240 ppm | Lead acetate paper test, Head space [1]: brown/ | Lead acetate paper test, Liquid [1]: yellow/ | Carcinogenicity [3]: yes | Mutagenicity [3]: yes | RCRA Hazardous Waste [3]: yes | Safe to use [3]: some | Sensitizing chemical [3]: yes | Toxicity [3]: no | Formaldehyde ([3]; formaldehyde in the product): 100 ppm | Deodorizes [4]: no | Stable [4]: no | Strong bonding to H2S [4]: no | Reactivity* ([4]; 1 is highest): 1 | Reactive at ambient temperature ([4]; ambient temperature): yes
